Laboratory results from patent publication US12509461B2, “Enhanced performance of amorphous solid and solubilized formulations for achieving therapeutic plasma concentrations” (BRISTOL-MYERS SQUIBB COMPANY, priority 2019, dated 2025).

What was measured:
[1] = Microcentrifuge dissolution test in 0.5% SIF in PBS pH 6.5; format: physicochemical; conditions: control; 1000 μg/mL if all of drug had dissolved
Method: Microcentrifuge dissolution tests were performed in a 37° C. temperature-controlled box. Weighed 1 mg of sample into each of two 2.0 mL Sorenson microcentrifuge tubes. Added 1.8 mL of 0.5% SIF in phosphate buffered saline (PBS) (pH 6.5) to each tube and started the timer. Vortexed the samples for 1 minute on Setting 8 on a Fisher Vortex Genie 2. Centrifuged the samples for 1 minute at 13,000 rpm using an IEC Micromax microcentrifuge. When the timer reads 4 minutes, extracted 50 μL of supernatant from each microcentrifuge tube into a HPLC vial containing 250 μL of diluent (HPLC-grade 95:5 THF:Water). Vortexed the mixtures for 25 seconds. Repeated the steps for following time points: 10, 20, 40, and 90 minutes, and again at 20 hours.
Analyzed the samples by HPLC using the method below:
As a control, crystalline Compound (I) alone was evaluated using the same procedure. A sufficient amount of material was added so that the concentration of Compound (I) would have been 1000 μg/mL, if all of drug had dissolved.
The concentrations of Compound (I) obtained in these samples were used to determine the maximum dissolved concentration of Compound (I) in solution during the first ninety minutes of the test (MDC90), the area under the concentration-versus-time curve during the initial ninety minutes (AUC90).

[2] = Aqueous solubility and ionization of Compound (I); format: physicochemical
Excerpt: [drawing 2] and is referred to herein as “Compound (I)”. Compound (I), a process to prepare Compound (I), and methods of treatment employing Compound (I) are disclosed in U.S. Patent Application Publication No. 2016/0096839, which is assigned to the present assignee and incorporated herein by reference in its entirety. […] These characteristics of Compound (I) render it difficult to formulate for oral administration to achieve therapeutically effective blood levels.

Structure (SMILES)	AUC90 [1]	Cmax90 [1]	ionization ([2]; physiologically relevant region)	aqueous solubility ([2]; room temperature)
C[C@@H]1CCC[C@H](n2cnc(-c3cc(Cl)ccc3-n3cc(Cl)nn3)cc2=O)c2cc(ccn2)-c2c(cnn2C(F)F)NC1=O [Crystalline API, (9R,13S)-13-{4-[5-chloro-2-(4-chloro-1H-1,2,3-triazol-1-yl)phenyl]-6-oxo-1,6-dihydropyrimidin-1-yl}-3-(difluoromethyl)-9-methyl-3,4,7,15-tetraazatricyclo[12.3.1.0^2,6]octadeca-1(18),2(6),4,14,16-pentaen-8-one]	1810 µg/mL	26000 ng/mL		
C[C@@H]1CCC[C@H](n2cnc(-c3cc(Cl)ccc3-n3cc(Cl)nn3)cc2=O)c2cc(ccn2)-c2c(cnn2C(F)F)NC1=O [Compound (I), (9R,13S)-13-{4-[5-chloro-2-(4-chloro-1H-1,2,3-triazol-1-yl)phenyl]-6-oxo-1,6-dihydropyrimidin-1-yl}-3-(difluoromethyl)-9-methyl-3,4,7,15-tetraazatricyclo[12.3.1.0^2,6]octadeca-1(18),2(6),4,14,16-pentaen-8-one]			non-ionizable	low aqueous solubility
